In PubChem BioAssay AID192 (DTP/NCI, 2004):
Inconclusive results and toxic doses are left out. The calls were made as follows: active = survival T/C of 150% or more; inactive = T/C below 125% in these data.

Tested on: BDF1 mice, B16 melanoma ip, median survival T/C
Test: NCI In Vivo Anticancer Drug Screen. Data for tumor model B16 Melanoma (intraperitoneal) in B6D2F1 (BDF1) mice
Details: endpoint: median survival time, higher = longer survival
Method in brief: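 The ratio T/C compares compound-treated mice with vehicle-treated controls, using survival or tumor size as the endpoint in a transplantable tumor model.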

[1] = dose: 100.0 mg/kg/injection, schedule: Q01DX009 (ip), vehicle: saline with Tween-80
[2] = dose: 200.0 mg/kg/injection, schedule: Q01DX009 (ip), vehicle: saline with Tween-80
[3] = dose: 400.0 mg/kg/injection, schedule: Q01DX009 (ip), vehicle: saline with Tween-80
[4] = dose: 100.0 mg/kg/injection, schedule: Q01DX009 (ip), vehicle: Klucel (hydroxypropylcellulose) (HPC)
[5] = dose: 200.0 mg/kg/injection, schedule: Q01DX009 (ip), vehicle: Klucel (hydroxypropylcellulose) (HPC)
[6] = dose: 50.0 mg/kg/injection, schedule: Q01DX009 (ip), vehicle: saline
[7] = dose: 400.0 mg/kg/injection, schedule: Q01DX009 (ip), vehicle: Klucel (hydroxypropylcellulose) (HPC)
[8] = dose: 6.25 mg/kg/injection, schedule: Q01DX009 (ip), vehicle: water
[9] = dose: 12.5 mg/kg/injection, schedule: Q01DX009 (ip), vehicle: saline
[10] = dose: 25.0 mg/kg/injection, schedule: Q01DX009 (ip), vehicle: saline

Measured: T/C

COc1ccc(Nc2ccnc3cc(Cl)ccc23)cc1CN(CCCl)CCCl
inactive: dose: 1.25 mg/kg/injection, schedule: Q01DX009 (ip), vehicle: Klucel (hydroxypropylcellulose) (HPC) 118 % of control | dose: 2.5 mg/kg/injection, schedule: Q01DX009 (ip), vehicle: Klucel (hydroxypropylcellulose) (HPC) 94 % of control

COc1ccc(C(=O)c2no[n+]([O-])c2C(=O)c2ccc(OC)cc2)cc1
inactive: dose: 12.5 mg/kg/injection, schedule: Q01DX009 (ip), vehicle: saline with Tween-80 95 % of control | dose: 25.0 mg/kg/injection, schedule: Q01DX009 (ip), vehicle: saline with Tween-80 107 % of control | dose: 50.0 mg/kg/injection, schedule: Q01DX009 (ip), vehicle: saline with Tween-80 101 % of control | [1] 95 % of control | [2] 87 % of control | [3] 113 % of control

COc1ccc(C(C(N)=O)N2CCOCC2)cc1 (centres undefined)
inactive: dose: 25.0 mg/kg/injection, schedule: Q01DX009 (ip), vehicle: Klucel (hydroxypropylcellulose) (HPC) 92 % of control | dose: 50.0 mg/kg/injection, schedule: Q01DX009 (ip), vehicle: Klucel (hydroxypropylcellulose) (HPC) 89 % of control | [4] 87 % of control | dose: 100.0 mg/kg/injection, schedule: Q04DX003 (ip), vehicle: Klucel (hydroxypropylcellulose) (HPC) 92 % of control | [5] 86 % of control | dose: 200.0 mg/kg/injection, schedule: Q04DX003 (ip), vehicle: Klucel (hydroxypropylcellulose) (HPC) 95 % of control | dose: 400.0 mg/kg/injection, schedule: Q04DX003 (ip), vehicle: Klucel (hydroxypropylcellulose) (HPC) 95 % of control

Cc1ccc2ccccc2c1OC(C)C(=O)O (centres undefined)
inactive: dose: 25.0 mg/kg/injection, schedule: Q04DX003 (ip), vehicle: alcohol 100 % of control | dose: 50.0 mg/kg/injection, schedule: Q01DX009 (ip), vehicle: alcohol 112 % of control | dose: 50.0 mg/kg/injection, schedule: Q04DX003 (ip), vehicle: alcohol 100 % of control | dose: 100.0 mg/kg/injection, schedule: Q01DX009 (ip), vehicle: alcohol 109 % of control | dose: 100.0 mg/kg/injection, schedule: Q04DX003 (ip), vehicle: alcohol 88 % of control

Cc1ccc(NC(=O)c2ccccc2Cl)cc1
inactive: [1] 105 % of control | [2] 97 % of control

CC1(C)N=C(N)N=C(N)N1c1cccc(CNC(=O)Nc2cccc(S(=O)(=O)F)c2)c1
inactive: [6] 101 % of control

O=[N+]([O-])c1cccc(S(=O)(=O)Nc2ccccc2Cl)c1
inactive: [1] 90 % of control | [2] 95 % of control | [3] 95 % of control

Cc1c(Cl)cccc1NC(=O)c1ccc([N+](=O)[O-])cc1
inactive: [1] 105 % of control | [2] 100 % of control

C/C=C/C(=O)OC(C)CCC(CC)CCCC (centres undefined)
inactive: [4] 90 % of control | [5] 90 % of control | [7] 90 % of control

Cc1c(O)c2c(c(O)c1Cc1ccc(CN)cc1)C(=O)c1ccccc1C2=O
inactive: dose: 0.78 mg/kg/injection, schedule: Q01DX009 (ip), vehicle: water 109 % of control | dose: 1.56 mg/kg/injection, schedule: Q01DX009 (ip), vehicle: water 109 % of control | dose: 3.13 mg/kg/injection, schedule: Q01DX009 (ip), vehicle: water 98 % of control | [8] 93 % of control

O=c1[nH]c(=O)c2nc(-c3cccnc3)cnc2[nH]1
inactive: [9] 104 % of control | [10] 93 % of control | [6] 97 % of control | dose: 100.0 mg/kg/injection, schedule: Q01DX009 (ip), vehicle: saline 89 % of control

CS(=O)(=O)c1cc([N+](=O)[O-])cc([N+](=O)[O-])c1Cl
inactive: dose: 0.1 mg/kg/injection, schedule: Q01DX009 (ip), vehicle: saline 93 % of control | dose: 0.2 mg/kg/injection, schedule: Q01DX009 (ip), vehicle: saline 93 % of control | dose: 0.4 mg/kg/injection, schedule: Q01DX009 (ip), vehicle: saline 100 % of control | dose: 0.8 mg/kg/injection, schedule: Q01DX009 (ip), vehicle: saline 95 % of control | dose: 1.25 mg/kg/injection, schedule: Q01DX009 (ip), vehicle: saline with Tween-80 91 % of control | dose: 2.5 mg/kg/injection, schedule: Q01DX009 (ip), vehicle: saline with Tween-80 86 % of control

CNC(Cc1ccccc1)C1CCCCC1 (centres undefined)
inactive: dose: 6.25 mg/kg/injection, schedule: Q04DX003 (ip), vehicle: Klucel (hydroxypropylcellulose) (HPC) 102 % of control | dose: 12.5 mg/kg/injection, schedule: Q04DX003 (ip), vehicle: Klucel (hydroxypropylcellulose) (HPC) 100 % of control | dose: 25.0 mg/kg/injection, schedule: Q04DX003 (ip), vehicle: Klucel (hydroxypropylcellulose) (HPC) 96 % of control

Cc1cc2nc3ccc(=[N+](C)C)cc-3sc2cc1N
inactive: dose: 3.12 mg/kg/injection, schedule: Q01DX009 (ip), vehicle: saline 116 % of control | [9] 116 % of control | [10] 107 % of control | [6] 97 % of control

COc1cc(Cl)ccc1C
active: dose: 75.0 mg/kg/injection, schedule: Q01DX001 (ip), vehicle: Klucel (hydroxypropylcellulose) (HPC) 182 % of control
inactive: dose: 37.5 mg/kg/injection, schedule: Q01DX001 (ip), vehicle: Klucel (hydroxypropylcellulose) (HPC) 103 % of control | dose: 150.0 mg/kg/injection, schedule: Q01DX001 (ip), vehicle: Klucel (hydroxypropylcellulose) (HPC) 116 % of control | dose: 300.0 mg/kg/injection, schedule: Q01DX001 (ip), vehicle: Klucel (hydroxypropylcellulose) (HPC) 100 % of control

CCCCC/C(C)=N\Nc1ccccn1
inactive: dose: 12.5 mg/kg/injection, schedule: Q01DX009 (ip), vehicle: saline sonified 106 % of control | dose: 25.0 mg/kg/injection, schedule: Q01DX009 (ip), vehicle: saline sonified 100 % of control | dose: 50.0 mg/kg/injection, schedule: Q01DX009 (ip), vehicle: saline sonified 102 % of control | dose: 100.0 mg/kg/injection, schedule: Q01DX009 (ip), vehicle: saline sonified 100 % of control

O=C(O)CC(NCc1ccccc1)C(=O)O (centres undefined)
inactive: [1] 97 % of control | [2] 102 % of control | [3] 100 % of control

O=C1c2ccccc2C(=O)c2c1ccc(C(=O)O)c2-c1ccc2ccccc2c1
inactive: [4] 103 % of control | [5] 99 % of control | [7] 96 % of control

CC1CC(C)CC(C)C(O)/C(C#N)=C/C=C/CC(C2CCCC2C(=O)O)OC(=O)CC(O)C(C)C1 (centres undefined)
inactive: dose: 0.12 mg/kg/injection, schedule: Q01DX009 (ip), vehicle: Klucel (hydroxypropylcellulose) (HPC) 111 % of control | dose: 0.12 mg/kg/injection, schedule: Q01DX009 (ip), vehicle: saline with Tween-80 119 % of control | dose: 0.25 mg/kg/injection, schedule: Q01DX009 (ip), vehicle: Klucel (hydroxypropylcellulose) (HPC) 108 % of control | dose: 0.25 mg/kg/injection, schedule: Q01DX009 (ip), vehicle: saline with Tween-80 113 % of control | dose: 0.5 mg/kg/injection, schedule: Q01DX009 (ip), vehicle: Klucel (hydroxypropylcellulose) (HPC) 110 % of control | dose: 1.0 mg/kg/injection, schedule: Q01DX009 (ip), vehicle: Klucel (hydroxypropylcellulose) (HPC) 107 % of control | dose: 2.0 mg/kg/injection, schedule: Q01DX009 (ip), vehicle: Klucel (hydroxypropylcellulose) (HPC) 105 % of control | dose: 4.0 mg/kg/injection, schedule: Q01DX009 (ip), vehicle: Klucel (hydroxypropylcellulose) (HPC) 98 % of control

COc1cccc(CN2CCCNCC2)c1
inactive: [8] 102 % of control | dose: 12.5 mg/kg/injection, schedule: Q01DX009 (ip), vehicle: water 115 % of control | dose: 25.0 mg/kg/injection, schedule: Q01DX009 (ip), vehicle: water 114 % of control | dose: 50.0 mg/kg/injection, schedule: Q01DX009 (ip), vehicle: water 100 % of control

Cc1ccc2c(ccc(/C=C\c3cc(C)c4cccnc4c3O)[n+]2C)c1
inactive: dose: 1.56 mg/kg/injection, schedule: Q01DX009 (ip), vehicle: saline 95 % of control | dose: 3.13 mg/kg/injection, schedule: Q01DX009 (ip), vehicle: saline 95 % of control | dose: 6.25 mg/kg/injection, schedule: Q01DX009 (ip), vehicle: saline 91 % of control

CC(C)CC(NC(=O)OCc1ccccc1)C(=O)O (centres undefined)
inactive: dose: 100.0 mg/kg/injection, schedule: Q04DX003 (ip), vehicle: saline with Tween-80 102 % of control | [2] 106 % of control | [3] 121 % of control
